Measured values as given in patent publication US11879021B2, “Cyclic peptides and uses thereof” (UNIVERSITÉ DE MONTRÉAL, priority 2016, dated 2024).
“And” between values parts separate entries of the source, which are not always exact repeats. Equal values may be shown once. Numbered stars: 1 amine (or outer) side, 2 acyl side, 3 side chain; on linkers, the order of the positions; unused ones are H or OH. Square brackets hold non-standard residues; d marks the D form. Peptide text beside a SMILES is read from it. azaTyr = O=C(N(Cc1ccc(O)cc1)N[*:1])[*:2]

Legend:
[1] = system: R-FSL-1 (TLR2 agonist)-induced NO production in RAW macrophage cell line; assay: Nitric oxide (NO) production induced by TLR2 agonist R-FSL-1 in RAW macrophage cell line; format: cell-based, murine; details: RAW macrophages; for suppression of R-FSL-1-mediated NO production: at the concentration tested (10^−6 or 10^−7 M), FIGS. 4A to 4F
Experimental: The murine RAW1 macrophage cell line was obtained from American Type Cell Collection (ATCC #TIB-71), seeded at 1.5×10^5 cells/well in Dulbecco's Modified Eagle's medium (DMEM) containing 100 U/mL of penicillin (Pen) and 100 μg/mL of streptomycin (Strep) on a 48-well plate (Costar® #3548), and incubated at 37° C. with 5% CO2. After 2 h, the cell culture medium of adhered cells was removed and replaced by DMEM-Pen/Strep medium containing 0.2% of bovine serum albumin (BSA), and supplemented with the cyclic peptides at a concentration of 10^−6 or 10^−7 M. MPE-001 (DBG178, His-D-Trp-Ala-AzaTyr-D-Phe-Lys-NH2) and [azaLys^6]-GHRP-6 (His-D-Trp-Ala-Trp-D-Phe-azaLys-NH2, negative control) at 10^−6 M were used as positive and negative controls, respectively. After 1 h pre-incubation, the cells were stimulated overnight using the TLR2 ligand fibroblast-stimulating lipopeptide (R-FSL-1) (Invivogen® #L7022) at a concentration of 300 ng/mL. Supernatants were then collected for nitrite production analysis by fluorescence using 2,3-diaminonaphthalene (DAN). Briefly, 25 μL of sample was incubated with 0.5 μg of DAN in a 100 μL final volume of phosphate buffer (50 mM, pH 7.5) at room temperature in the dark. After 15 min, the reaction was stopped with 20 μL of NaOH (2.8N) and the plate was read using a fluorescence plate reader (TECAN® Safire, λexc 365 nm and λem 430 nm).

[2] = target: T1, CD36 (Rattus norvegicus, UniProt Q07969); assay: Competition binding of photoactivatable [125I]-Tyr-Bpa-Ala-Hexarelin to CD36 in rat cardiac membranes; details: competition with [125I]-Tyr-Bpa-Ala-Hexarelin, rat heart membranes; for IC50: read-out: IC50 (μM), binding affinity for CD36
T1 construct: from tissue; host or cells: Heart (cardiac membranes) of Sprague Dawley rats from Charles River
Experimental: Hearts from Sprague Dawley rats (300-325 g) from Charles River were cut into small pieces and homogenized with a Polytron® at low speed, 3×15 sec in buffer A (10 mM NaHCO3, 5 mM NaN3, 10 μM Pefabloc®, 0.1 μM Aprotinin, 1 μM Pepstatin A, 1 μM Leupeptin, pH 7.0) at a concentration of […] of tissue. The homogenate was first centrifuged at 8,700×g for 20 min in a Sorvall® centrifuge and the supernatant was collected on ice. The pellet was resuspended and re-homogenized with a Glass-Teflon® Potter by 5 strokes. This homogenate was recentrifuged at 8,700×g for 10 min and the resulting supernatant was combined with the first collected supernatant. The combined supernatant was centrifuged at 35,000×g for 20 min. The pellet fraction obtained was resuspended in Buffer B (20 mM Tris-maleate, 0.6M KCl, pH 6.8) in a volume corresponding to 20 mL/g of fresh tissue using a glass homogenizer with a Teflon pestle. The resulting suspension was centrifuged again at 35,000×g for 60 min. and the pellet fraction obtained was resuspended in Buffer C (10 mM Tris/HCl buffer pH 7.4) and thoroughly homogenized in a glass with a Teflon® pestle (20 ml/g of fresh tissue). This suspension was submitted to another centrifugation at 35,000×g for 60 min. The collected pellet was resuspended in 50 mM Tris/HCl buffer pH 7.4) containing 2 mM EGTA in a final volume corresponding to 1-2 mL/g of fresh tissue. The membrane preparation obtained was frozen at −80° C. Protein concentration was determined using the bicinchoninic acid (BCA) method, employing BSA as standard.
The reaction was started by adding 3 nmol of H2O2 for 5 min at room temperature. This step was repeated twice with a period of 5 min of incubation for each addition. The reaction was stopped by diluting the mixture with 1 mL of 0.1% TFA. The radioiodinated peptide was purified by HPLC on a reverse-phase Vydac® C18 column with a 60-min linear gradient from 20% to 50% of acetonitrile in 0.1% TFA. The eluted radiolabelled tracer was collected, aliquoted (50×10^6 cpm/fraction) and stored at −80° C.
Binding studies with MPE-298 were done with increasing concentrations from 0.01 to 5 μM of competition ligands. Nonspecific binding was defined as binding not displaced by 50 μM corresponding peptide. All peptide containing solutions were diluted in Buffer B. Buffer A and B were degassed under vacuum, and used in capped tubes in order to minimize lipid peroxidation. Before the incubation period, all tubes were put under a low flow of nitrogen. All material was kept on ice and the binding assay was performed in darkness. After an incubation period of 60 min at 22° C. (vortexing every 15 min), membranes were submitted to irradiation with UV lamps (365 nm) for 15 min at 4° C. After centrifugation at 12,000×g for 15 minutes, the pellets were resuspended in 40 μl of sample buffer (62 mM Tris-HCl, pH 6.8, 2% SDS, 10% glycerol, 15% 2-mercaptoethanol, and 0.05% bromophenol blue), and boiled for 5 min prior to being subjected to electrophoresis. Proteins (50 μg/40 μl) were separated on a 7.5% SDS-PAGE Bio-Rad® Mini-Protean electrophoresis system (150 V for 1 h). The gels resulting from SDS/PAGE were fixed, colored in Coomassie Brilliant Blue R-250, dried, exposed to a storage phosphor intensifying screen (Amersham Biosciences), and analysed using a Typhoon® PhosphorImager (GE Healthcare Life Sciences®). […] The curves were analysed by using software package (Graphpad® prism version 7.0).

[3] = system: R-FSL-1 (TLR2 agonist)-induced TNF-α and CCL-2 release in RAW macrophages; assay: R-FSL-1-induced TNF-α and CCL-2 release in RAW macrophages; format: cell-based, murine; details: 10^−7 M
Experimental: The murine RAW1 macrophage cell line was obtained from American Type Cell Collection (ATCC #TIB-71). RAW cells were seeded at 150,000 cells per well in a 48-well plate (Costar® #3548) and weaned overnight in medium (DMEM supplemented 1% penicillin/streptomycin) at 37° C. with 5% CO2. The next day, the medium was changed to DMEM-1% penicillin/streptomycin supplemented with 0.2% BSA. The cells were first pretreated with 300 μL of azapeptides DBG178 (MPE-133, reference standard), 25 (MPE-210), 26 (MPE-266), 28 (MPE-268), 32 (MPE-267), 33 (MPE-298), 38 (MPE-308), 35 (MPE-300), 39 (MPE-310) and azaLys6-GHRP-6 (as negative control) at 10^-7M for 30 min. Then, […] of the TLR2 agonist, R-FSL-1 (300 ng/ml final concentration, R-FSL-1, Invivogen® #L7022) was added for 4 h period of incubation at 37° C. with 5% CO2. At the end of the incubation period, media were collected and stored at −80° C. for TNF-α and CCL-2 assays using ELISA kits (EbioScience® #88-7391 and #88-7324). Results were analyzed by analysis of variance (ANOVA) with post hoc comparisons using Dunnett's test with a statistical software package (Graph Pad Prism® version 7.0). P<0.05 was considered statistically significant.

T1 sequence (Q07969 whole entry): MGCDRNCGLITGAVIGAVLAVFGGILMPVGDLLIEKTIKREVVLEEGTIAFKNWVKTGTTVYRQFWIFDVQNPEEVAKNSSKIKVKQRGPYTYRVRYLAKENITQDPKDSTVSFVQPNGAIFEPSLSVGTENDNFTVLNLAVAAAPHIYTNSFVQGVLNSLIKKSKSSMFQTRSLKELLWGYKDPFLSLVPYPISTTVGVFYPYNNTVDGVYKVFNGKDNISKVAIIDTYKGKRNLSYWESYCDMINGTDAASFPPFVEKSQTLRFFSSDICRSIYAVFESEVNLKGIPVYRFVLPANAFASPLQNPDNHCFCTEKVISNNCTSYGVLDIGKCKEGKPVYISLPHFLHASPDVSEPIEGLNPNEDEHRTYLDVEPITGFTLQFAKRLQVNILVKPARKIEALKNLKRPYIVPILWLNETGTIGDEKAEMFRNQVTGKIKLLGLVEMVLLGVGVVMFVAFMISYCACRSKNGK

binding to CD36 (in words) [2] | IC50 [2] | SMILES | suppression of R-FSL-1-mediated NO production [1] | other results
 | 0.68 µM | C=CCN1CC#CCN(NC(=O)[C@@H](Cc2c[nH]c3ccccc23)NC(=O)[C@@H](N)Cc2cnc[nH]2)C(=O)N[C@@H](Cc2c[nH]c3ccccc23)C(=O)N[C@H](Cc2ccccc2)C(=O)N[C@H](C(N)=O)CCCC1 [MPE-266] | significant suppression | effect on R-FSL-1-induced CCL-2 release [3]: significant inhibitory effect; effect on R-FSL-1-induced TNF-α release [3]: significant inhibitory effect
 | 2.06 µM | CN1CC#CCN(NC(=O)[C@@H](Cc2c[nH]c3ccccc23)NC(=O)[C@@H](N)Cc2cnc[nH]2)C(=O)N[C@@H](Cc2c[nH]c3ccccc23)C(=O)N[C@H](Cc2ccccc2)C(=O)N[C@H](C(N)=O)CCCC1 [MPE-210] |  | effect on R-FSL-1-induced CCL-2 release [3]: no significant effect; effect on R-FSL-1-induced TNF-α release [3]: no significant effect
 | 14.3 µM | C=CCN1CC#CCN(NC(=O)C(C)N)C(=O)N[C@H](Cc2c[nH]c3ccccc23)C(=O)N[C@@H](C)C(=O)N[C@@H](Cc2c[nH]c3ccccc23)C(=O)N[C@H](Cc2ccccc2)C(=O)N[C@H](C(N)=O)CCCC1 (stereo in doubt) [MPE-202] |  | 
 | 0.67 µM | C=CCN1CC#CCN(NC(=O)[C@H](C)NC(C)=O)C(=O)N[C@H](Cc2c[nH]c3ccccc23)C(=O)N[C@@H](C)C(=O)N[C@@H](Cc2c[nH]c3ccccc23)C(=O)N[C@H](Cc2ccccc2)C(=O)N[C@H](C(N)=O)CCCC1 [MPE-308] |  | suppression of NO production compared with positive control MPE-001 at the same concentration ([1]; 10^−7 M, FIG. 4F): more important; suppression of R-FSL-1-mediated NO production at 10^−7 M ([1]; 10^−7 M, further analyses, FIG. 4F): significant suppression; R-FSL-1-mediated NO production, % of control ([1]; control = R-FSL-1 only, noticeable reduction without reaching significance (P<0.01)): about 80 % of control; effect on R-FSL-1-induced CCL-2 release [3]: significant inhibitory effect; effect on R-FSL-1-induced TNF-α release [3]: significant inhibitory effect
 | 2.26 µM | C=CCN1CC#CCN(NC(=O)C(N)C(C)C)C(=O)N[C@H](Cc2c[nH]c3ccccc23)C(=O)N[C@@H](C)C(=O)N[C@@H](Cc2c[nH]c3ccccc23)C(=O)N[C@H](Cc2ccccc2)C(=O)N[C@H](C(N)=O)CCCC1 (stereo in doubt) [MPE-203] |  | 
detectable binding | 11.6 µM | C=CCN1CC#CCN(NC(=O)[C@H](C)N)S(=O)(=O)N[C@H](Cc2c[nH]c3ccccc23)C(=O)N[C@@H](C)C(=O)N[C@@H](Cc2c[nH]c3ccccc23)C(=O)N[C@H](Cc2ccccc2)C(=O)N[C@H](C(N)=O)CCCC1 [MPE-400] |  | 
detectable binding | 0.66 µM | C=CCN1CC#CC[C@H](NC(=O)[C@H](C)N)C(=O)N[C@H](Cc2c[nH]c3ccccc23)C(=O)N[C@@H](C)C(=O)N[C@@H](Cc2c[nH]c3ccccc23)C(=O)N[C@H](Cc2ccccc2)C(=O)N[C@H](C(N)=O)CCCC1 [MPE-075] | significant suppression | 
detectable binding | 1.04 µM | C=CCN1CC#CC[C@@H](NC(=O)[C@H](C)N)C(=O)N[C@H](Cc2c[nH]c3ccccc23)C(=O)N[C@@H](C)C(=O)N[C@@H](Cc2c[nH]c3ccccc23)C(=O)N[C@H](Cc2ccccc2)C(=O)N[C@H](C(N)=O)CCCC1 [MPE-074] |  | 

Continued, compound first:

SMILES | binding to CD36 (in words) [2] | IC50 [2] | suppression of R-FSL-1-mediated NO production [1] | other results
C=CCN1CC#CC[C@H](NC(=O)[C@H](C)N)C(=O)N[C@@H](C)C(=O)N[C@@H](Cc2c[nH]c3ccccc23)C(=O)N[C@H](Cc2ccccc2)C(=O)N[C@H](C(N)=O)CCCC1 [MPE-111] | detectable binding | 0.24 µM | significant suppression | 
C[C@H](NC(=O)[C@@H](Cc1c[nH]c2ccccc12)NC(=O)[C@@H](N)Cc1c[nH]cn1)C(=O)NN(Cc1ccc(O)cc1)C(=O)N[C@H](Cc1ccccc1)C(=O)N[C@@H](CCCCN)C(N)=O [MPE-001, His-D-Trp-Ala-AzaTyr-D-Phe-Lys-NH2, reference compound] (H-H[dW]A[azaTyr][dF]K-NH2) |  | ~2 µM |  | 
C=CCN1CC#CCN(NC(=O)[C@@H](C)N)C(=O)N[C@H](Cc2c[nH]c3ccccc23)C(=O)N[C@@H](C)C(=O)NN(Cc2ccc(OC)cc2)C(=O)N[C@H](Cc2ccccc2)C(=O)N[C@H](C(N)=O)CCCC1 [MPE-189] | detectable binding | 3.26 µM | significant suppression | 
C=CCN1CC#CC[C@@H](NC(=O)[C@H](C)N)C(=O)N[C@@H](C)C(=O)N[C@@H](Cc2c[nH]c3ccccc23)C(=O)N[C@H](Cc2ccccc2)C(=O)N[C@H](C(N)=O)CCCC1 [MPE-110] | detectable binding | 3.32 µM |  | 
C=CCN1CC#CCC(NC(=O)[C@H](C)N)C(=O)N[C@H](Cc2c[nH]c3ccccc23)C(=O)N[C@@H](C)C(=O)N[C@@H](Cc2c[nH]c3ccccc23)C(=O)N[C@H](Cc2ccccc2)C(=O)N[C@H](C(N)=O)CCC1 (some centres unmarked) [MPE-048] | detectable binding | 13.7 µM |  | 
C=CCN1CC#CCN(NC(=O)[C@H](C)N)C(=O)N[C@H](Cc2c[nH]c3ccccc23)C(=O)N[C@@H](C)C(=O)N[C@H](C(=O)N[C@H](Cc2ccccc2)C(=O)N[C@@H](CCCCN)C(N)=O)CCCC1 [MPE-300] |  | 10 µM and 10.6 µM | significant suppression | 
